According to patent US12465659B2, “Iron(III) complexes having new contrast agent properties, for magnetic resonance imaging” (CHARITÉ—UNIVERSITÄTSMEDIZIN BERLIN, priority 2019, dated 2025):

Columns and labels:
[1] = T1-relaxivity measurements at different magnetic field strengths in water and foetal bovine serum; assay type: physicochemical
Method: For the subsequent T1-relaxivity measurements which were carried out, ultra-pure water and foetal bovine serum (FBS, pH 7.7) were used as the solvent for the metallic complexes. The relaxivity measurements at different magnetic field strengths were carried out on the following instruments: 0.94 T with a NMR relaxometer (Bruker Minispec mq 40, Germany), 1.5 T with a SIEMENS MAGNETOM Sonata MRI, 3 T with a SIEMENS MAGNETOM Lumina MRI and 7 T with a Bruker Pharmascan Kleintier-MRI.

[2] = excretion route of the iron complex; details: in vivo
[3] = pH dependency of T1- and T2-relaxivity in water (0.94 T NMR relaxometer); assay type: physicochemical; details: pH<6
Source text: At pH<6, a maximum T1-relaxivity of 1.7 l·mmol^−1·s^−1 or T2-relaxivity of 1.9 l·mmol^−1·s^−1 was reached.

| T1-relaxivity (r1) per metal ion ([1]; 0.94 T, 37° C., FBS (pH 7.7)) [L/mmol/s] | T1-relaxivity (r1) per metal ion ([1]; 0.94 T, 37° C., water) [L/mmol/s] | T1-relaxivity (r1) per metal ion ([1]; 1.5 T, 23° C., FBS (pH 7.7)) [L/mmol/s] | T1-relaxivity (r1) per metal ion ([1]; 1.5 T, 23° C., water) [L/mmol/s] | T1-relaxivity (r1) per metal ion ([1]; 3.0 T, 37° C., FBS (pH 7.7)) [L/mmol/s] | T1-relaxivity (r1) per metal ion ([1]; 3.0 T, 37° C., water) [L/mmol/s] | T1-relaxivity (r1) per metal ion ([1]; 7.0 T, 37° C., FBS (pH 7.7)) [L/mmol/s] | T1-relaxivity (r1) per metal ion ([1]; 7.0 T, 37° C., water) [L/mmol/s] | T1-relaxivity per molecule ([1]; 0.94 T, 37° C., FBS (pH 7.7)) [L/mmol/s] | T1-relaxivity per molecule ([1]; 0.94 T, 37° C., water) [L/mmol/s] | T1-relaxivity per molecule ([1]; 1.5 T, 23° C., FBS (pH 7.7)) [L/mmol/s] | T1-relaxivity per molecule ([1]; 1.5 T, 23° C., water) [L/mmol/s] | T1-relaxivity per molecule ([1]; 3.0 T, 37° C., FBS (pH 7.7)) [L/mmol/s] | T1-relaxivity per molecule ([1]; 3.0 T, 37° C., water) [L/mmol/s] | T1-relaxivity per molecule ([1]; 7.0 T, 37° C., FBS (pH 7.7)) [L/mmol/s] | T1-relaxivity per molecule ([1]; 7.0 T, 37° C., water) [L/mmol/s] | excretion route [2] | maximum T1-relaxivity [3] [L/mmol/s] | maximum T2-relaxivity [3] [L/mmol/s] | SMILES |
| --- | --- | --- | --- | --- | --- | --- | --- | --- | --- | --- | --- | --- | --- | --- | --- | --- | --- | --- | --- |
| 2.01 | 1.92 | 2.74 | 2.27 | 3.06 | 2.64 | 2.61 | 2.38 | – | – | – | – | – | – | – | – | – | – | – | N[C@H]1CC[C@H](NC(=O)CN(CC(=O)O)[C@@H]2CCCC[C@H]2N(CC(=O)O)CC(=O)O)CC1 [(2-2)] |
| 2.18 | 1.99 | 3.26 | 2.75 | 3.39 | 2.99 | 3.23 | 2.65 | 4.36 | 3.98 | 6.52 | 5.5 | 6.78 | 5.98 | 6.46 | 5.3 | liver excretion | – | – | O=C(O)CN(CC(=O)O)[C@@H]1CCCC[C@H]1N(CC(=O)O)CC(=O)N[C@H]1CC[C@H](NC(=O)CN(CC(=O)O)[C@@H]2CCCC[C@H]2N(CC(=O)O)CC(=O)O)CC1 [(1-2)] |
| – | – | – | – | – | – | – | – | – | – | – | – | – | – | – | – | – | 1.7 | 1.9 | NCCNC(=O)CN(CC(=O)O)[C@@H]1CCCC[C@H]1N(CC(=O)O)CC(=O)O [(2-1)] |
